The values that follow come from patent US20070254891A1, “Crystalline forms of 4-(2-fluorophenyl)-6-methyl-2-(piperazin-1-yl)thieno[2,3-d]pyrimidine” (Dynogen Pharmaceuticals, Inc., priority 2006, published 2007).

Common to all, as to type: physicochemical
A short description of data set [1]: Storage at 40° C./75% RH under ambient light (XRPD, HPLC purity, colour). Here is the method: (§1) Purity analysis was performed on an Agilent HP1100 system equipped with a diode array detector and using Chemstation V9 software. Gradient, Reverse Phase methods (duration approximately 40 minutes) were used in a HPLC1 system. A Thermo-Electron Corporation HyPurity C18 5 um 150×4.6 mm column was used at 25° C. Test samples were made-up of 0.2 mg/ml of the compound in acetonitrile:water (1:1 v/v). 10 μl of sample was injected into the column. The flow rate through the column was 1 ml/min and the detection wavelength, bandwidth was 254,8 nm. Phase A was 0.1% phosphoric acid in water and Phase B was 0.1% phosphoric acid in acetonitrile. The mobile phase timetable is shown below in Table 2.
Form I was characterized by pKa, LogP, LogPion and LogD determination and prediction, XRPD before and after storage at 40° C./75% RH for 4 weeks, PLM, DSC and TGA, ^1HNMR, solubility in water with pH measurement, HPLC purity before and after storage at 40° C./75% RH for 4 weeks, water content, GVS with XRPD and purity analysis after measurement, and VT-XRPD.
Form II has been characterized using XRPD before and after storage at 40° C./75% RH for 3 weeks, PLM, DSC and TGA, Solubility in water with pH measurement, HPLC purity, Water content, GVS with XRPD analysis after measurement, and VT-XRPD.

A short description of data set [2]: Gravimetric vapor sorption (GVS). Here is the method:
GVS was used to determine the amount of water adsorbed by a sample. Briefly, samples were run on a Hiden IGASorp moisture sorption analyzer running CFRSorp software. Sample sizes were typically 10 mg. A moisture adsorption desorption isotherm was performed as outlined below in Table 3 (2 scans giving 1 complete cycle). Samples were loaded/unloaded at typical room humidity and temperature (40% RH, 25° C.). Samples were then analyzed by XRPD after GVS analysis, e.g., to determine whether any structural changes took place after adsorption of water. The standard isotherm was performed at 25° C. at 10% RH intervals over a 0-90% RH range.

Data set [3] can be described thus: Aqueous solubility with pH measurement. Particulars: water; for solubility at 24 h: 25 °C, thermodynamic from solid. The procedure:
Each sample was suspended in 0.25 ml of solvent (water) in an amount effective to produce a maximum final concentration of greater than or equal to about 10 mg/ml of the parent free form of the compound (i.e., adding excess sample to account for the weight of the salt). […] The filtrate was then diluted down 101 times.

Data set [4] is described as follows: Accelerated light stability study (Atlas Suntest CPS+ light box). Here is the method: as §1
Accelerated Light stability experiments were conducted using an Atlas Suntest CPS+light box. The light exposure was set to 550 W/m^2 and the run time was set to 168 hours (1 week). The chamber temperature and black standard temperature (which indicates how hot the test samples will become) were set to 25° C. The actual temperature in the sample chamber was 40° C.
Form I and II were assessed using an Atlas Suntest CPS+ light box to determine the effect of their exposure to light over a period of 168 hours (1 week). The light exposure was set to 550 W/M^2. Samples were weighed into either open weighing boats covered by pyrex glass beakers, glass vials with open tops (no lid), or glass vials covered in Aluminum foil. In all instances, the material was spread out into an even, thin layer.

Data set [5] is described as follows: pKa determination (Sirius GlpKa, potentiometric and UV). Here is the method: pKa was measured on a Sirius GlpKa instrument equipped with a D-PAS attachment. A UV measurement was taken when the sample was in an aqueous solution and a potentiometric was taken when the sample was in a MeOH:H2O mixture. Measurements were taken at 25° C. The titration media was ionic strength adjusted with 0.15M KCl. Values determined from potentiometric measurements in the MeOH:H2O mixtures were corrected to 0% co-solvent via a Yasuda-Shedlovsky extrapolation. The data was refined using Refinement Pro software version 1.0. Prediction of pKa values was made using ACD pKa prediction software Ver 8.

Data set [6] is described as follows: LogP / LogPion / LogD by potentiometric titration (octanol:ISA water). Here is the method:
LogP was determined using a potentiometric titration on a Sirius GlpKa instrument using three ratios of Octanol:ISA water to generate Log P, Log Pion, and Log D values. The data was refined using Refinement Pro software version 1.0. Predictions of LogP were made using ACD Ver 8 and Syracuse KOWWIN Ver 1.67 software.

Data set [7] can be described thus: 10 week stability study at 40° C./75% RH and 60° C./75% RH, light and dark. Here is the method:
as §1
Samples of Form I and II were tested at 40° C./75% RH and 60° C./75% RH in both light and dark conditions for up to 10 weeks. As the samples were located in temperature/humidity control chambers, the exposure to light was limited to normal laboratory light conditions with artificial light and some winter daylight through the windows.
Approximately 100 mg of each sample was weighed into plastic weighing boats and spread out to form an even thin layer for each of the temperature/humidity/light conditions, as shown in Table 6. The dark samples were protected from exposure to light by wrapping them in aluminum foil. The foil was pierced to allow exposure to humidity.
Time points chosen for HPLC analysis during the stability study were T=0, 1, 2, 5 and 10 weeks. At 10 weeks, the samples were analyzed using XRPD, DSC and polarized light microscopy.

Data set [8] in a line: Variable temperature XRPD (VT-XRPD). Particulars: heating; irreversible; hydrochloride. Here is the method:
Samples run under ambient conditions were prepared as flat plate specimens using powder without grinding unless otherwise stated. Approximately 1-2 mg of the sample was lightly pressed on a glass slide to obtain a flat surface. Samples run under non-ambient conditions (VT-XRPD) were mounted on a silicon wafer with heat conducting compound. The sample was then heated to the appropriate temperature at about 20° C./minute and subsequently held isothermally for about 1 minute before data collection was initiated.
Three samples were studied using variable temperature XRPD (VT-XRPD): Form I as received, substantially pure Form I as prepared in Example 3, and substantially pure Form II as prepared in Example 3. VT-XRPD studies were initially carried out on substantially pure Form I as prepared in Example 3 with measurements at 25° C., 50° C., 80° C., 150° C., 220° C., 225° C., 250° C. and cooling to 29° C. Prior to measurement of the last XRPD pattern, the material was crushed due to the growth of large crystals. An overlay of the XRPD patterns can be found in FIG. 4A.
An experiment was also carried out on Form I as received, with measurements at 26° C., 50° C., 150° C., 200° C., 210° C., 220° C., 230° C. and cooling to 27° C. An overlay of the XRPD patterns can be found in FIG. 4B. […] (see peak at ˜14.7 2θ). […]

[9] abbreviates: 4 weeks at 40° C./75% RH, ambient light.

Read-outs that look alike come from different tables or passages of the source.

The term solubility denotes the dissolved amount per volume that the medium holds. The term pKa denotes the pH at which an ionisable group is half protonated. One may read the logP as the decadic logarithm of the partition coefficient of the neutral form, usually between octanol and water. A higher logP goes with higher lipophilicity. As a reminder, the logD is the decadic logarithm of the distribution of all forms, ionised or not, between an organic phase and buffer at a given pH. Lower therefore signals a more hydrophilic compound. With `Cc1cc2c(-c3ccccc3F)nc(N3CCNCC3)nc2s1.Cl` [Form I, 4-(2-fluorophenyl)-6-methyl-2-(piperazin-1-yl)thieno[2,3-d]pyrimidine hydrochloride], the “Colour of material surface after storage” value in data set [1] (setting [9]) was “gone yellow”. Also, in data set [1] (setting [9]), the “HPLC purity after storage” value was found to be 99.0%. For the same compound, in data set [1] (40° C./75% RH for four weeks), the “XRPD pattern after storage” value is reported as “unchanged”. Further, in data set [2] (after one adsorption/desorption cycle), the “XRPD reanalysis after GVS” value was “did not show any change”. For the same compound, the “GVS total weight increase” value in data set [2] (between 0 and 90% RH, single cycle, 25° C., hydrochloride) was 5.0%. Moreover, the GVS weight increase result in data set [2] (between 20% and 30% RH) was “about 4.8%”. Also, the “GVS weight increase, equivalent water” value in data set [2] (between 20% and 30% RH) is given as 1.0 moles of water. The “pH of the solubility sample” value in data set [3] (25° C., 24 hours, hydrochloride) is listed as 6.33. In addition, the solubility at 24 h in data set [3] (read-out: Aqueous solubility (as the hydrochloride)) was 2100 µg/mL; in data set [3] (read-out: Aqueous solubility (free base equivalent)), 1700 µg/mL. Also, the “Purity after 1 week light exposure” value in data set [4] (20 ml glass vial covered in Al foil with loose lid (control)) is reported as 99.9; in data set [4] (20 ml glass vial, 550 W/m^2, 168 hours, hydrochloride), 77.8; in data set [4] (open weighing boat, 550 W/m^2, 168 hours, hydrochloride), 79.4. In data set [4] (one week, FIGS. 6A/6B (open weighing boats), hydrochloride), the “HPLC purity after accelerated light study” value came to 79.4%. Besides, the pKa in data set [5] (MeOH:H2O mixtures, extrapolated to 0% co-solvent, potentiometric determination in MeOH/water, Yasuda-Shedlovsky extrapolation, read-out: pKa (basic)) was 8.64; in data set [5] (aqueous solution, UV spectroscopy (D-PAS attachment), read-out: pKa of second basic centre), 0.81. The LogPion in data set [6] (0.15M KCl(Aq) / 1-octanol) turned out to be 1.41. In data set [6] (1-octanol / 0.15M KCl (aq), 0.15M KCl(Aq) / 1-octanol), this compound came in with a logP of 3.96. Further, the logD in data set [6] (octanol/ISA water, pH 7.4) was determined as 2.72. Further, the Purity % came out at 99.9% in data set [7] (40° C./75% RH, Dark, 1 week); 100% in data set [7] (40° C./75% RH, Dark, 2 weeks); 100% in data set [7] (40° C./75% RH, Dark, 5 weeks); 99.9% in data set [7] (40° C./75% RH, Dark, 10 weeks, hydrochloride); 99.9% in data set [7] (40° C./75% RH, Light, 1 week); 100% in data set [7] (40° C./75% RH, Light, 2 weeks). Further, the Purity % was 99.8% in data set [7] (40° C./75% RH, Light, 5 weeks, hydrochloride); 99.4% in data set [7] (40° C./75% RH, Light, 10 weeks, hydrochloride); 99.9% in data set [7] (60° C./75% RH, Dark, 1 week); 99.9% in data set [7] (60° C./75% RH, Dark, 2 weeks, hydrochloride); 100% in data set [7] (60° C./75% RH, Dark, 5 weeks); 100% in data set [7] (60° C./75% RH, Dark, 10 weeks, hydrochloride). In addition, the Purity % worked out at 99.8% in data set [7] (60° C./75% RH, Light, 1 week); 99.8% in data set [7] (60° C./75% RH, Light, 2 weeks, hydrochloride); 99.5% in data set [7] (60° C./75% RH, Light, 5 weeks, hydrochloride); 99.4% in data set [7] (60° C./75% RH, Light, 10 weeks, hydrochloride); 100% in data set [7] (time point 0 weeks, hydrochloride). In addition, the “Yellow coloration of the surface (visual inspection)” value in data set [7] (after 10 weeks, both storage conditions) is given as “greatest”. Further, the “Stability as indicated by the HPLC data” value in data set [7] (up to 10 weeks, 40° C./75% RH and 60° C./75% RH) is “stable to ambient light levels as well as elevated temperature and humidity”.

With `Cc1cc2c(-c3ccccc3F)nc(N3CCNCC3)nc2s1.Cl` [Form III, 4-(2-fluorophenyl)-6-methyl-2-(piperazin-1-yl)thieno[2,3-d]pyrimidine hydrochloride], the “Temperature of conversion into Form II” value in data set [8] is 200-220 °C.
